Non-standard residues stand in square brackets, D forms with d. Residues, ends and D or L forms follow the SMILES beside them. *: point of attachment. Sta = CC(C)C[C@H](N)[C@@H](O)CC(=O)O; NHCH2(2-pyridyl) = c1ccc(CN*)nc1; Boc = CC(C)(C)OC(=O)*

Experiment [1] deals with T1, Renin (Homo sapiens, UniProt P00797).
T1 sequence (P00797 whole entry): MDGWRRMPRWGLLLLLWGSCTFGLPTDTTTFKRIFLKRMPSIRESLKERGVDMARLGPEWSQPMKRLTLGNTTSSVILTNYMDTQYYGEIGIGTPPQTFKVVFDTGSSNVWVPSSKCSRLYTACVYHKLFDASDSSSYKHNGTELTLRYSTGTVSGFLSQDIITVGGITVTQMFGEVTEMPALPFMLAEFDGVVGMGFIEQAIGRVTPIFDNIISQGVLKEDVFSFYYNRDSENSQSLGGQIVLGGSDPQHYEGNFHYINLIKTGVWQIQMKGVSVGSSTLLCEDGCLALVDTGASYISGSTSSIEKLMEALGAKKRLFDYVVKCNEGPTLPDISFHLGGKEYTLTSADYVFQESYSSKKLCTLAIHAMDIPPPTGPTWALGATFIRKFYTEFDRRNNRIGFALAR
Briefly: Plasma renin inhibitory activity was evaluated in lyophilized human plasma with 0.1%EDTA. The experiment is classed as cell-free.

Experiment [2] concerns the target Pepsin A (Sus scrofa, UniProt P00791). Briefly: Inhibitory activity was evaluated against pepsin using porcine pepsin (sigma), porcine hemoglobin (sigma) and 0.02 M KCl-HCl buffer (pH 2).
The target in experiment [3] is T2, Angiotensin-converting enzyme (Oryctolagus cuniculus, UniProt P12822).
T2 sequence (P12822 whole entry): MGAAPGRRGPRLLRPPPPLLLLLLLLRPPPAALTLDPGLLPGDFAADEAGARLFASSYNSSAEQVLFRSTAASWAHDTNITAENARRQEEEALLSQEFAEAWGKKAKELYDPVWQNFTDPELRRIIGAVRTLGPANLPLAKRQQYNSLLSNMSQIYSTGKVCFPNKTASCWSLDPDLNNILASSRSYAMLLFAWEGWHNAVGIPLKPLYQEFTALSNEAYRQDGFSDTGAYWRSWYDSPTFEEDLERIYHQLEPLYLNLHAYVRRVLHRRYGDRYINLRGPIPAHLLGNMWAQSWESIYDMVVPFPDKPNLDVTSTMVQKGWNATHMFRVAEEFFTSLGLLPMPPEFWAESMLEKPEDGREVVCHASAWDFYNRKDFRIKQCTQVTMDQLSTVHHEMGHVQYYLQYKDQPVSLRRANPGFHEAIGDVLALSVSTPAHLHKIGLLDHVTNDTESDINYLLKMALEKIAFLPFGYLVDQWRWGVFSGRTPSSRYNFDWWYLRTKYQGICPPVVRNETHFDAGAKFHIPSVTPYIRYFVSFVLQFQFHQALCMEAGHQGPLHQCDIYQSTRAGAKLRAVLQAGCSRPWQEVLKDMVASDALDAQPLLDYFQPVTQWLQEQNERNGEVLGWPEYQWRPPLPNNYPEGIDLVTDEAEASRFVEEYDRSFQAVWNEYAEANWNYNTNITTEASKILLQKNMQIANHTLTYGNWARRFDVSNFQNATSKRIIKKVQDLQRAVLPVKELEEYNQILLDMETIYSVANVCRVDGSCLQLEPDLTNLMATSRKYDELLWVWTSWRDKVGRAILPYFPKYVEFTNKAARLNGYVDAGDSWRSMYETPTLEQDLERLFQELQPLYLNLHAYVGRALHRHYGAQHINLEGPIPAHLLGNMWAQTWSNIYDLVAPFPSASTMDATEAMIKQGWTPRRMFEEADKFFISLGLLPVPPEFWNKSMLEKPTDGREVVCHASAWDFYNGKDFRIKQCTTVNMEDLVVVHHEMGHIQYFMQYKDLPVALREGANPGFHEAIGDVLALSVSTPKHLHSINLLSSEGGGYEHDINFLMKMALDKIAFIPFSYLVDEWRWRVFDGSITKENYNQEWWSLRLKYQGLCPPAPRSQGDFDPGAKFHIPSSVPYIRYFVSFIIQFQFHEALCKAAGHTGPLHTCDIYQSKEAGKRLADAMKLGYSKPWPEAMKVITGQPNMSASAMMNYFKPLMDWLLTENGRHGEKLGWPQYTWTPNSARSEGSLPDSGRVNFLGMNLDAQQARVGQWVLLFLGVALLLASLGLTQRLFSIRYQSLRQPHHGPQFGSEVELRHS
Briefly: Inhibitory activity was evaluated against Angiotensin I converting enzyme activity in rabbit.

Pepsin A, sequence (P00791 whole entry): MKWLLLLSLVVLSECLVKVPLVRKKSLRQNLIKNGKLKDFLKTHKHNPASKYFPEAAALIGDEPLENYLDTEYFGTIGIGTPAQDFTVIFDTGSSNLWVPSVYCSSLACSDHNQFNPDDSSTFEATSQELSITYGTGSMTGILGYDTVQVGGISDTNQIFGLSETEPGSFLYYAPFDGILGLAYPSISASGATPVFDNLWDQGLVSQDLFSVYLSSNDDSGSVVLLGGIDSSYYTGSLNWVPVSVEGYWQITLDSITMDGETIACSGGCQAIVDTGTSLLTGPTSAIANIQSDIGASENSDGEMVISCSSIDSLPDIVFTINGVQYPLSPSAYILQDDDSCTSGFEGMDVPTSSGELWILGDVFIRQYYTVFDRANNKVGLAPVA

The IC50 is the point on the concentration scale where inhibition reaches its midpoint. Low values mean inhibition by little substance, high ones a need for much substance. `CC[C@H](C)[C@H](NC(=O)C(F)(F)C(=O)[C@H](CC(C)C)NC(=O)[C@H](Cc1c[nH]cn1)NC(=O)[C@H](Cc1ccccc1)NC(=O)OC(C)(C)C)C(=O)NCc1ccccn1` returned a half-maximal inhibitory concentration (IC50) in experiment [1] of 0.52 nM. Still for that read-out and setting: as for `CC[C@H](C)[C@H](NC(=O)C(F)(F)[C@H](O)[C@H](CC(C)C)NC(=O)[C@H](Cc1c[nH]cn1)NC(=O)[C@H](Cc1ccccc1)NC(=O)OC(C)(C)C)C(=O)NCc1ccccn1`, the figure is 12 nM.

`CC[C@H](C)[C@H](NC(=O)C(F)(F)[C@@H](O)[C@H](CC(C)C)NC(=O)[C@H](Cc1c[nH]cn1)NC(=O)[C@H](Cc1ccccc1)NC(=O)OC(C)(C)C)C(=O)NCc1ccccn1` gave a concentration for half-maximal inhibition (IC50) in experiment [1] of 730 nM. `CC[C@H](C)[C@H](NC(=O)C[C@H](O)[C@H](CC(C)C)NC(=O)[C@H](Cc1c[nH]cn1)NC(=O)[C@H](Cc1ccccc1)NC(=O)OC(C)(C)C)C(=O)NCc1ccccn1` (Boc-FH[Sta]I-{NHCH2(2-pyridyl)}) gave an IC50 in experiment [1] of 1.7 nM. With `CC(C)CC(=O)N[C@H](C(=O)N[C@H](C(=O)N[C@@H](CC(C)C)[C@@H](O)CC(=O)N[C@@H](C)C(=O)N[C@@H](CC(C)C)[C@@H](O)CC(=O)O)C(C)C)C(C)C` [PEPSTATIN], 10 nM corresponded to half-maximal inhibition in experiment [2] (IC50). In the case of H-PHPFHFFVYK-OH [RIP], in experiment [3], half-maximal inhibition (IC50) required 12000 nM. For the compound `CC[C@H](C)[C@H](NC(=O)CC(=O)[C@H](CC(C)C)NC(=O)[C@H](Cc1c[nH]cn1)NC(=O)[C@H](Cc1ccccc1)NC(=O)OC(C)(C)C)C(=O)NCc1ccccn1`, inhibition in experiment [1] was half-maximal at 34 nM (IC50).
